Data on 40 compounds can be found in patent US12466803B2 (priority 2021, dated 2025).

pIC50: −log10 of the molar value.

The subject of the first experiment is phospho (S293) BCKDHA in human skeletal myocytes. Briefly: Phospho BCKDHA Alpha Surefire Cell Assay. Type of experiment: cell-based. Particulars: 60 minutes with compound, geometric mean.
Broadly, the pIC50 is −log10 of the IC50, conventionally taken in molar units. As for `COc1c(F)cc(Cl)c(-c2c(C(=O)O)sc3cc(F)ccc23)c1F` (atropisomer, axis not shown) [Example 16, 3-(6-Chloro-2,4-difluoro-3-methoxyphenyl)-6-fluoro-1-benzothiophene-2-carboxylic acid, ATROP-2], the pIC50 was 7.82. `COc1c(F)cc(Cl)c(-c2c(C(=O)O)sc3cc(F)ccc23)c1F` (atropisomer, axis not shown) [Example 15, 3-(6-Chloro-2,4-difluoro-3-methoxyphenyl)-6-fluoro-1-benzothiophene-2-carboxylic acid, ATROP-1]: the pIC50 is under 4.22. Consider `C[C@@H]1CCc2cc(-c3c(C(=O)O)sc4cc(Cl)ccc34)ccc2O1` (single isomer, unassigned) [Example 42, 6-chloro-3-(2-methyl-3,4-dihydro-2H-1-benzopyran-6-yl)-1-benzothiophene-2-carboxylic acid, ENANT-2], for which the pIC50 is under 4.62.

For `C[C@@H]1CCc2cc(-c3c(C(=O)O)sc4cc(F)ccc34)c(F)cc2O1` (single isomer, unassigned) [Example 69, 6-fluoro-3-(7-fluoro-2-methyl-3,4-dihydro-2H-1-benzopyran-6-yl)-1-benzothiophene-2-carboxylic acid, ENANT-2], the pIC50 was 5.44.

The same experiment, now with this note: Homo sapiens, 1 h, 60 minutes with compound, geometric mean.
With `O=C(O)c1sc2cc(F)ccc2c1-c1cc(F)c(F)c(Cl)c1F` [Example 24, 3-(3-Chloro-2,4,5-trifluorophenyl)-6-fluoro-1-benzothiophene-2-carboxylic acid], the negative logarithm of the IC50 (pIC50) is 6.40. Same read-out and setting: as for `COc1ccc(F)c(-c2c(C(=O)O)sc3cc(F)ccc23)c1F` [Example 55, 3-(2,6-difluoro-3-methoxyphenyl)-6-fluoro-1-benzothiophene-2-carboxylic acid], the figure is 5.96; as for `C[C@@H]1CCc2cc(-c3c(C(=O)O)sc4cc(F)ccc34)ccc2O1` (single isomer, unassigned) [Example 43, 6-fluoro-3-(2-methyl-3,4-dihydro-2H-1-benzopyran-6-yl)-1-benzothiophene-2-carboxylic acid, ENANT-1], under 4.22. On the same count and under the same terms, as for `CC1CCc2cc(-c3c(C(=O)O)sc4cc(F)ccc34)c(F)cc2O1` (stereo not shown) [Example 67, 6-fluoro-3-(7-fluoro-2-methyl-3,4-dihydro-2H-1-benzopyran-6-yl)-1-benzothiophene-2-carboxylic acid], the figure is 5.29; as for `O=C(O)c1sc2cc(F)ccc2c1-c1ccc2c(c1F)CCCO2` [Example 32, 6-fluoro-3-(5-fluoro-3,4-dihydro-2H-1-benzopyran-6-yl)-1-benzothiophene-2-carboxylic acid], 5.72. `Cc1cc(-c2c(C(=O)O)sc3cc(Cl)ccc23)c(F)cc1F` [Example 137, 6-chloro-3-(2,4-difluoro-5-methylphenyl)-1-benzothiophene-2-carboxylic acid]: the pIC50 was 6.27. On the same count and under the same terms, as for `O=C(O)c1sc2cc(F)ccc2c1-c1cc(F)cc(F)c1Cl` [Example 111, ammonium 3-(2-chloro-3,5-difluorophenyl)-6-fluoro-1-benzothiophene-2-carboxylate], the figure is under 4.22; as for `O=C(O)c1sc2cc(F)ccc2c1-c1c(F)cc(Cl)cc1F` [Example 59, 3-(4-chloro-2,6-difluorophenyl)-6-fluoro-1-benzothiophene-2-carboxylic acid], under 4.22; as for `O=C(O)c1sc2cc(Cl)ccc2c1-c1cc(F)c(F)cc1F` [Example 133, 6-chloro-3-(2,4,5-trifluorophenyl)-1-benzothiophene-2-carboxylic acid], 6.14.

Consider `C[C@H]1CCc2ccc(-c3c(C(=O)O)sc4cc(F)ccc34)cc2O1` (single isomer, unassigned) [Example 57, 6-fluoro-3-(2-methyl-3,4-dihydro-2H-1-benzopyran-7-yl)-1-benzothiophene-2-carboxylic acid, ENANT-1], for which the pIC50 was under 4.22. For `O=C(O)c1sc2cc(F)ccc2c1-c1ccc2c(c1)CCCC2` [Example 37, 6-fluoro-3-(5,6,7,8-tetrahydronaphthalen-2-yl)-1-benzothiophene-2-carboxylic acid], the pIC50 is 4.60. For `O=C(O)c1sc2cc(Cl)ccc2c1-c1cc(F)c(F)c(F)c1F` [Example 149, ammonium 6-chloro-3-(2,3,4,5-tetrafluorophenyl)-1-benzothiophene-2-carboxylate], the pIC50 is 6.02. Turning to `COc1c(F)cc(F)c(-c2c(C(=O)O)sc3cc(F)ccc23)c1Cl` [Example 154, 3-(2-chloro-4,6-difluoro-3-methoxyphenyl)-6-fluoro-1-benzothiophene-2-carboxylic acid], the pIC50 is 5.38.

In the case of `O=C(O)c1sc2cc(F)ccc2c1-c1c(F)cccc1F` [Example 48, 3-(2,6-difluorophenyl)-6-fluoro-1-benzothiophene-2-carboxylic acid], the pIC50 was 4.92.

Turning to `Cc1c(F)c(-c2c(C(=O)O)sc3cc(Cl)ccc23)cc(F)c1Cl` [Example 136, ammonium 6-chloro-3-(4-chloro-2,5-difluoro-3-methylphenyl)-1-benzothiophene-2-carboxylate], the pIC50 was 6.92. `CCOc1c(Cl)ccc(-c2c(C(=O)O)sc3cc(F)ccc23)c1F` [Example 51, 3-(4-chloro-3-ethoxy-2-fluorophenyl)-6-fluoro-1-benzothiophene-2-carboxylic acid]: the pIC50 is 4.92. With `COc1c(F)cc(F)c(-c2c(C(=O)O)sc3cc(Cl)ccc23)c1F` [Example 63, 6-chloro-3-(2,4,6-trifluoro-3-methoxyphenyl)-1-benzothiophene-2-carboxylic acid], the pIC50 was 7.15. As for `O=C(O)c1sc2cc(F)ccc2c1-c1cc(F)c(F)c(F)c1F` [Example 109, 6-fluoro-3-(2,3,4,5-tetrafluorophenyl)-1-benzothiophene-2-carboxylic acid], the pIC50 was 6.22.

For the compound `CCc1c(F)c(F)cc(-c2c(C(=O)O)sc3cc(Cl)ccc23)c1F` [Example 134, 6-chloro-3-(3-ethyl-2,4,5-trifluorophenyl)-1-benzothiophene-2-carboxylic acid], the pIC50 is 7.10.

In the case of `COc1c(F)ccc(-c2c(C(=O)O)sc3cc(Cl)ccc23)c1F` [Example 13, 6-Chloro-3-(2,4-difluoro-3-methoxyphenyl)-1-benzothiophene-2-carboxylic acid], the pIC50 is 7.32. As to `Cc1c(Cl)ccc(-c2c(C(=O)O)sc3cc(F)ccc23)c1F` [Example 38, 3-(4-chloro-2-fluoro-3-methylphenyl)-6-fluoro-1-benzothiophene-2-carboxylic acid], the pIC50 is 6.34.

Consider `O=C(O)c1sc2cc(F)ccc2c1-c1ccc2c(c1F)OCCC2` [Example 66, 6-fluoro-3-(8-fluoro-3,4-dihydro-2H-1-benzopyran-7-yl)-1-benzothiophene-2-carboxylic acid], for which the pIC50 is 5.42. On to `COc1ccc(F)c(-c2c(C(=O)O)sc3cc(Cl)ccc23)c1F` [Example 129, 6-chloro-3-(2,6-difluoro-3-methoxyphenyl)-1-benzothiophene-2-carboxylic acid], for which the pIC50 is 5.74.

Regarding `CCc1nccc(-c2c(C(=O)O)sc3cc(F)ccc23)c1F` [Example 112, 3-(2-ethyl-3-fluoropyridin-4-yl)-6-fluoro-1-benzothiophene-2-carboxylic acid], the pIC50 is 5.64. Consider `O=C(O)c1sc2cc(F)ccc2c1-c1c(F)c(F)cc(F)c1F` [Example 140, 6-fluoro-3-(2,3,5,6-tetrafluorophenyl)-1-benzothiophene-2-carboxylic acid], for which the pIC50 was 5.42. For `O=C(O)c1sc2cc(F)ccc2c1-c1cc(F)c(F)c(O)c1F` [Example 22, 6-Fluoro-3-(2,4,5-trifluoro-3-hydroxyphenyl)-1-benzothiophene-2-carboxylic acid], the pIC50 was 4.64.

For `COc1c(C#N)ccc(-c2c(C(=O)O)sc3cc(F)ccc23)c1F` [Example 49, 3-(4-cyano-2-fluoro-3-methoxyphenyl)-6-fluoro-1-benzothiophene-2-carboxylic acid], the pIC50 was 5.12. As to `COc1ccc(-c2c(C(=O)O)sc3cc(F)ccc23)c(F)c1F` [Example 35, 3-(2,3-difluoro-4-methoxyphenyl)-6-fluoro-1-benzothiophene-2-carboxylic acid], the pIC50 was under 4.22. In the case of `CCOc1ccc(-c2c(C(=O)O)sc3cc(F)ccc23)c(F)c1F` [Example 34, 3-(4-ethoxy-2,3-difluorophenyl)-6-fluoro-1-benzothiophene-2-carboxylic acid], the pIC50 is under 4.22.

As for `O=C(O)c1sc2cc(F)ccc2c1-c1cc(Cl)c(F)cc1F` [Example 108, 3-(5-chloro-2,4-difluorophenyl)-6-fluoro-1-benzothiophene-2-carboxylic acid], the pIC50 was 6.21. As to `COc1c(Cl)ccc(-c2c(C(=O)O)sc3cc(Cl)ccc23)c1F` [Example 138, 6-chloro-3-(4-chloro-2-fluoro-3-methoxyphenyl)-1-benzothiophene-2-carboxylic acid], the pIC50 was 6.80.

As to `COc1c(F)c(F)cc(-c2c(C(=O)O)sc3ccccc23)c1F` [Example 157, 3-(2,4,5-trifluoro-3-methoxyphenyl)-1-benzothiophene-2-carboxylic acid], the pIC50 is 6.64. Regarding `O=C(O)c1sc2cc(F)ccc2c1-c1ccc(F)c(C2CC2)c1F` [Example 147, 3-(3-cyclopropyl-2,4-difluorophenyl)-6-fluoro-1-benzothiophene-2-carboxylic acid], the pIC50 is 6.72. Consider `O=C(O)c1sc2cc(F)ccc2c1-c1c(F)cc2c(c1F)CCCO2` [Example 1, 3-(5,7-Difluoro-3,4-dihydro-2H-1-benzopyran-6-yl)-6-fluoro-1-benzothiophene-2-carboxylic acid], for which the pIC50 was 6.37. The same measure, in the same setting: as for `O=C(O)c1sc2cc(Cl)ccc2c1-c1ccc(Cl)c(F)c1` [Example 20, 6-Chloro-3-(4-chloro-3-fluorophenyl)-1-benzothiophene-2-carboxylic acid], the figure is 5.62. In the case of `Cc1c(F)ccc(-c2c(C(=O)O)sc3cc(Cl)ccc23)c1F` [Example 141, 6-chloro-3-(2,4-difluoro-3-methylphenyl)-1-benzothiophene-2-carboxylic acid], the pIC50 is 6.64.
